# Assay results: article PMC13227213, “Design of strictly orthogonal biosensors for maximizing renewable biofuel overproduction” (Journal of Advanced Research, 2025)
# Legend:
# Δ33 = settings: 40 mM
# Protocol: (§1) A library of E. coli MG1655-derived strains with different genomic large-fragment deletions ranging from 14 to 143 kb was constructed and stored. To screen pentanol-tolerant strains, the strains from the library were inoculated into 3 mL LB medium and cultured at 37 °C for 8–10 h to obtain seed cultures. Subsequently, 50 µL of the seed culture was transferred to 5 mL LB medium in the presence of 20 mM n-pentanol or isopentanol and grown at 37 °C with 220 rpm for 12 h. A microplate reader (BioTek Cytation 3) was used to detect the OD600 values.
# Δ29 = settings: equivalent isopentanol stress (40 mM)
# Protocol: as §1
# E. coli MG1655 = assay: Tolerance of wild-type MG1655 to pentanols (OD600)
# Protocol: To assess the tolerance of wild-type MG1655 to n-pentanol or isopentanol, the single colony of wild-type MG1655 was inoculated into 3 mL LB medium and cultured at 37 °C for 8–10 h to obtain the seed culture. 50 µL of the seed culture was transferred to 5 mL LB medium adding 0–100 mM n-pentanol or isopentanol and grown at 37 °C with 220 rpm for 12 h. A microplate reader (BioTek Cytation 3) was used to detect the OD600 values.
# [1] = molecular target: T1, BmoR M94V/W128R/F272L (fusion with sfGFP) (Thauera butanivorans, UniProt A7MAQ9, F272L/M94V/W128R); assay: MicroScale Thermophoresis of sfGFP-fused BmoR in E. coli BL21(DE3) lysate supernatant, 16-point ligand dilution in assay buffer with 1 % DMSO, incubated at 37 °C for 15 min.; assay type: binding; settings: n = 3
# T1 construct: SUMO-BmoR-TEV-sfGFP-His fusion, E. coli BL21(DE3) lysate supernatant
# Protocol: (§2) Plasmids pWT-SUMO-BmoR-TEV-sfGFP-His, pWT-SUMO-BmoR^M94V/A117T/F163Y/F272L-TEV-sfGFP-His, and pWT-SUMO-BmoR^M94V/W128R/F272L-TEV-sfGFP-His were individually transformed into E. coli BL21(DE3). […] Subsequently, 100 µL of the seed culture was transferred to 100 mL LB medium and grown at 37 °C until the OD600 value reached 0.8. 0.1 mM IPTG was added into the culture, and the culture was incubated at 16 °C, 170 rpm for 12–18 h. 50 mL centrifuge tubes were used to centrifuge the culture at 5,000 rpm for 15 min to collect the cell pellets. The pellets were then resuspended in 15 mL of the binding buffer, and the cells were disrupted using the ultrasonic cell crusher. The mixture was then centrifuged at 10,000 rpm for 30 min to collect the supernatant. The Kd values of the wild-type BmoR and the mutants towards four SMs were measured by the MicroScale Thermophoresis (MST, Nanotemper) from Wuhan Bio-lab Biotechnology Co., Ltd.
# (§3) A 10 µL aliquot of the supernatant was diluted three folds with the assay buffer. The MST sample chamber was opened, and the tray was removed. The diluted protein sample was aspirated using a capillary and placed in the corresponding slot of the tray. The information of the protein samples and assay bugger was input, and the type of capillary was selected. The excitation power was set to “Auto”, and MST power was set to “High”. The concentration of the samples was adjusted using the assay buffer to 1/3 for BmoR^WT, BmoR^M94V/A117T/F163Y/F272L and BmoR^M94V/W128R/F272L. The samples were diluted to 100 µL/2000 µM using the assay buffer. Two eight-well strips were prepared and labeled from 1st to 16th. 10 µL of the assay buffer (1 % DMSO) was added into the 2nd-16th tubes, while 20 µL of the prepared sample was added to the 1st tube. 10 µL from the 1st tube was sequentially diluted into the 2nd-16th tubes. Subsequently, 10 µL of the lysate was added to each tube and mixed thoroughly. The mixed samples were incubated at 37 °C for 15 min before aspirating with a capillary to load into the sample tray. The software was started to begin the experiment.
# [2] = molecular target: T2, BmoR WT (fusion with sfGFP) (Thauera butanivorans, UniProt A7MAQ9); assay: as above; assay type: binding; settings: n = 3
# T2 construct: SUMO-BmoR-TEV-sfGFP-His fusion, E. coli BL21(DE3) lysate supernatant
# T2 sequence (A7MAQ9 1-669): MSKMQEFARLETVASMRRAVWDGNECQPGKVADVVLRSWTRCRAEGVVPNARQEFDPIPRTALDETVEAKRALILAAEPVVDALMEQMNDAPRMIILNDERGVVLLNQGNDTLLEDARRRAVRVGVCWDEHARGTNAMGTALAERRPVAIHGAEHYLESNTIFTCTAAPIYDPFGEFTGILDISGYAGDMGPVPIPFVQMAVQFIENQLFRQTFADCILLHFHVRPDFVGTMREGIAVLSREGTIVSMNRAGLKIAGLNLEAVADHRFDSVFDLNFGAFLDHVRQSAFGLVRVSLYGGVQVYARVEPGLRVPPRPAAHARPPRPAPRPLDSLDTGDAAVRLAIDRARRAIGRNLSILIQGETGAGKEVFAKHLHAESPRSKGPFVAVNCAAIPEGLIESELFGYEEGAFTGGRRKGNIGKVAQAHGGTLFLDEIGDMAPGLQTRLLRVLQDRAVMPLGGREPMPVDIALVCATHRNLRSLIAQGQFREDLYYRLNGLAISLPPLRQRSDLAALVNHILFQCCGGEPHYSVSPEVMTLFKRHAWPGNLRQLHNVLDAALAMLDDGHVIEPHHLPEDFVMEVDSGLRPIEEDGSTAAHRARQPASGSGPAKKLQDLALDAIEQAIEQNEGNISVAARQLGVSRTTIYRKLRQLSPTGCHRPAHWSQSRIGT
# Protocol: as §2, §3
# BmoR WT = molecular target: T3, BmoR WT (Thauera butanivorans, UniProt A7MAQ9); assay: Whole-cell BmoR biosensor dose-response (GFP/OD600, Pbmo-gfp reporter) in 96-deep-well plates with 0-60 mM pentanols or 0-100 mM butanols, LB medium at 30 °C, fitted to the Michaelis-Menten equation.; assay type: cell-based, E. coli XL10-Gold; settings: n = 3; read-out: Apparent Km
# T3 construct: full-length BmoR, expressed from biosensor plasmid (PbmoR-bmoR; Pbmo-gfp) in E. coli; hexamer
# T3 sequence (A7MAQ9 1-669): T2 sequence (A7MAQ9 1-669)
# Protocol: (§4) The response values of the above colonies containing various BmoR mutants to n-pentanol, isopentanol, n-butanol or isobutanol were tested. The single colonies were pre-inoculated into 5 mL LB medium with 50 μg/mL carbenicillin and then cultured at 37 °C overnight. […] The excitation and emission wavelengths were set as 470 and 510 nm, respectively. The fluorescence values were normalized as the GFP/OD600 values. Besides, 1 mL of the culture was centrifuged at 5,000 rpm for 5 min. The supernatant was discarded, and the sediment was then resuspended in 2 mL of the physiological saline. 5 μL of the culture was spotted onto glass slides for fluorescence microscopy (UOP 2100). Fifteen colonies which only responded to 10 mM n-pentanol or isopentanol were screened out. The bmoRs in the 15 colonies were amplified and sequenced to identify the mutation sites. Finally, the bmoRs in the five colonies were mutated.
# (§5) The OD600 values needed to be subtracted from the OD600 value of the blank LB culture. The excitation and emission wavelengths were set as 470 and 510 nm, respectively. The fluorescence values were normalized as the GFP/OD600 values. Besides, the GFP/OD600 values of the strain containing the plasmid pYH7 was regarded as the background fluorescence to be subtracted. Apparent Km values were estimated with Prism 9.5.0 through non-linear regression of the Michaelis-Menten equation. Finally, one or two effective mutants with orthogonal response towards n-pentanol or isopentanol were obtained.
# BmoR W128R = molecular target: T4, BmoR W128R (Thauera butanivorans, UniProt A7MAQ9, W128R); assay: as above; assay type: cell-based, E. coli XL10-Gold; settings: n = 3; read-out: Apparent Km
# T4 construct: full-length BmoR, biosensor plasmid pWT-W128R (PbmoR-bmoR; Pbmo-gfp)
# Protocol: as §4, §5
# BmoR A117T/F163Y = molecular target: T5, BmoR A117T/F163Y (Thauera butanivorans, UniProt A7MAQ9, A117T/F163Y); assay: cell-based; set-up: species or system E. coli XL10-Gold; settings: n = 3; read-out: Apparent Km
# T5 construct: full-length BmoR, biosensor plasmid pWT-A117T/F163Y (PbmoR-bmoR; Pbmo-gfp)
# Protocol: as §4
# as §5, with “Finally, one or two effective mutants with orthogonal response towards n-pentanol or isopentanol were obtained.” left out
# [3] = molecular target: T6, BmoR M94V/A117T/F163Y/F272L (fusion with sfGFP) (Thauera butanivorans, UniProt A7MAQ9, A117T/F163Y/F272L/M94V); assay: MicroScale Thermophoresis of sfGFP-fused BmoR in E. coli BL21(DE3) lysate supernatant, 16-point ligand dilution in assay buffer with 1 % DMSO, incubated at 37 °C for 15 min.; assay type: binding; settings: n = 3
# T6 construct: SUMO-BmoR-TEV-sfGFP-His fusion, E. coli BL21(DE3) lysate supernatant
# Protocol: as §2, §3
# T4 sequence (A7MAQ9 entry or part of it W128R): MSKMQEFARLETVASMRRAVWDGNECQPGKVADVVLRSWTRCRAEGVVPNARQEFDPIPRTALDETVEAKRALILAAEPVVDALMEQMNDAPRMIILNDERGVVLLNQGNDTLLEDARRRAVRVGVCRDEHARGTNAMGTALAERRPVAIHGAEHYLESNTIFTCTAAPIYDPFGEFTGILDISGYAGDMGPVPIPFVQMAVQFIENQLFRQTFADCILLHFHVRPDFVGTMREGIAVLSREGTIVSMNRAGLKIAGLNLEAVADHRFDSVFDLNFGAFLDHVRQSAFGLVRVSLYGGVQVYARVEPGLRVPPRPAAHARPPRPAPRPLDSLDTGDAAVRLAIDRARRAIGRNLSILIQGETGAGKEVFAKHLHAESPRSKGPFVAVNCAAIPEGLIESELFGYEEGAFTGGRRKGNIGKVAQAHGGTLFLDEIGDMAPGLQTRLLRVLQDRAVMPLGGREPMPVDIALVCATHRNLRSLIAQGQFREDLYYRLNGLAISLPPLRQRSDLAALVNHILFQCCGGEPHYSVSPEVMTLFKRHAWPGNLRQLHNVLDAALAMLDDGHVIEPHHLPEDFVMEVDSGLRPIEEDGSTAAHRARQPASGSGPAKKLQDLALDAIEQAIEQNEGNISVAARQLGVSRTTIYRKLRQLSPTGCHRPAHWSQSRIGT
# T5 sequence (A7MAQ9 entry or part of it A117T/F163Y): as the sequence (A7MAQ9 entry or part of it W128R) above, with A117T, R128W, F163Y counted along it
# T6 sequence (A7MAQ9 entry or part of it M94V/A117T/F163Y/F272L): as the sequence (A7MAQ9 entry or part of it W128R) above, with M94V, A117T, R128W, F163Y, F272L counted along it
# T1 sequence (A7MAQ9 entry or part of it M94V/W128R/F272L): as the sequence (A7MAQ9 entry or part of it W128R) above, with M94V, F272L counted along it
SMILES,Kd [2],EC50 (BmoR WT),EC50 (BmoR W128R),EC50 (BmoR A117T/F163Y),other results
CC(C)CCO [isopentanol],–,–,–,–,fold increase of OD600 / biomass compared to the wild type (Δ33): 1.34 fold; fold higher biomass accumulation than the wild type (Δ29): 1.58 fold
CCCCCO [n-pentanol],–,–,–,–,"fold reduction of OD600 (E. coli MG1655; 20 mM): 2.67 fold; OD600 of wild-type MG1655 (E. coli MG1655; 20 mM, 12 h): 0.420 ± 0.032; growth of wild-type MG1655 (in words) (E. coli MG1655; 60 mM): failing to grow"
"CC(C)CCO [Isopentanol, 3-methyl-1-butanol]",0.0938 µM,3.99 mM,58.2 mM,–,Kd [1]: 0.0261 µM
"CC(C)CO [Isobutanol, 2-methyl-1-propanol]",11.8 µM,8.75 mM,63.3 mM,22.3 mM,–
"CCCCCO [n-Pentanol, 1-pentanol]",0.106 µM,5.09 mM,–,59.5 mM,Kd [3]: 0.322 mM
